Results on nine molecules are retold here after patent USRE47689E1, “Compounds for treating spinal muscular atrophy” (PTC Therapeutics, Inc., priority 2011, dated 2019).

Molecules are shown by their SMILES.

For series [1], the system named is SMN2 minigene (full length SMN2 minigene mRNA containing SMN2 exon 7). The series can be described thus: SMN2 minigene mRNA splicing RT-qPCR assay in cultured cells. In kind it is cell-based, human. The following applies: Homo sapiens, HEK293-H; HEK293H cells stably transfected with SMN2-A minigene; 24 hours; 7-point concentration curve; 1.5-fold relative to vehicle-treated cells; read-out: EC1.5x for production of full length SMN2 mRNA. The essentials: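 Read-out: full-length (exon 7-included) SMN2 minigene mRNA by multiplex RT-qPCR with GAPDH, efficiency-corrected (1+E)^−Ct, GAPDH-normalized and divided by vehicle. Stably transfected HEK293H cells, 24 h compound exposure, duplicates per concentration. Value is EC1.5x, reported as star ranges.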
(In general: In qPCR the cycle at which signal appears reflects the starting amount.)

In a further series the test system is Smn protein. The series is described as follows: Smn protein assay in cultured cells (SMN HTRF). In kind it is cell-based, human. The following applies: 48 hours; for maximum fold (Fold) increase of Smn protein: SMA patient fibroblast cells, 7-point concentration data, fold increase relative to vehicle control (SMN HTRF). The essentials: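 Lysates in RIPA with protease inhibitors are incubated overnight at room temperature with HTRF anti-SMN antibodies. EC1.5x is derived from fold increase in ΔF over vehicle.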

`C[C@@H]1CN(c2ccc3cc(-c4cn5cc(Cl)sc5n4)c(=O)oc3c2)C[C@H](C)N1` [Compound 473, 3-(2-chloroimidazo[2,1-b][1,3]thiazol-6-yl)-7-[(3R,5S)-3,5-dimethylpiperazin-1-yl]-2H-chromen-2-one]: the melting point (commonly the temperature of the solid-liquid transition) lay in the range of 270 to 273 °C. The EC (1.5-fold) in series [1] was in the range of 0.1 to 0.3 µM. Also, the “maximum fold (Fold) increase of Smn protein” value (from here on “maximum fold (Fold) increase”) in the series with Smn protein was “** (fold increase between >1.2 and ≤1.35)”.
Turning to `Cc1cc(C)c2nc(-c3cc4ccc(N5CCNCC5)cc4oc3=O)cn2c1` [Compound 260, 3-(6,8-dimethylimidazo[1,2-a]pyridin-2-yl)-7-(piperazin-1-yl)-2H-chromen-2-one], the melting point is 219 to 229 °C. Moreover, in series [1], the EC (1.5-fold) lay within 0.3 to 1 µM. In addition, the “maximum fold (Fold) increase” value in the series with Smn protein was “* (maximum fold increase of ≤1.2)”.
For `COc1ccn2cc(-c3cc4ccc(N5C[C@@H](C)N[C@@H](C)C5)cc4oc3=O)nc2c1` [Compound 432, 7-[(3R,5S)-3,5-dimethylpiperazin-1-yl]-3-(7-methoxyimidazo[1,2-a]pyridin-2-yl)-2H-chromen-2-one], the melting point is 225 to 230 °C. The EC (1.5-fold) in series [1] was 1 to 3 µM. Besides, the “maximum fold (Fold) increase” value in the series with Smn protein was “** (fold increase between >1.2 and ≤1.35)”.
For the molecule `Cc1cn2cc(-c3cc4ccc(N(C)[C@H]5CCNC5)cc4oc3=O)nc2c(C)n1` [Cpd 620, 3-(6,8-dimethylimidazo[1,2-a]pyrazin-2-yl)-7-{methyl[(3S)-pyrrolidin-3-yl]amino}-2H-chromen-2-one], the melting point was in the range of 192 to 202 °C. In addition, in series [1], the EC (1.5-fold) was less than 0.1 µM. The EC1.5x (concentration giving 1.5-fold Smn protein increase) in the series on Smn protein (SMA Type 1 patient fibroblast cells (GM03813), 7-point concentration curve, SMN HTRF, concentration producing 1.5 times Smn protein vs DMSO vehicle control, read-out: EC1.5x for Smn protein expression) is less than 300 nM. Further, the “maximum fold (Fold) increase” value in the series with Smn protein was “**** (fold increase between >1.5 and ≤1.65)”.
Consider `O=c1oc2cc(N3CCNCC3)ccc2cc1-c1cc2ccccc2o1` [Compound 602, 3-(1-benzofuran-2-yl)-7-(piperazin-1-yl)-2H-chromen-2-one], for which the melting point was in the range of 208 to 211 °C. For the same molecule, in series [1], the EC (1.5-fold) was 0.3 to 1 µM. Moreover, the “maximum fold (Fold) increase” value in the series with Smn protein is on record as “* (maximum fold increase of ≤1.2)”.
As for `Cl.O=c1oc2cc(OC3CCNCC3)ccc2cc1-c1cn2cccnc2n1` [Compound 197, 3-(imidazo[1,2-a]pyrimidin-2-yl)-7-(piperidin-4-yloxy)-2H-chromen-2-one hydrochloride], the melting point is greater than 310 °C. Besides, in series [1], the EC (1.5-fold) fell in the range of 0.3 to 1 µM. The “maximum fold (Fold) increase” value in the series on Smn protein was “** (fold increase between >1.2 and ≤1.35)”.
Regarding `COc1cc(OC)cc(-c2cc3ccc(N4CCN[C@@H](C)C4)cc3oc2=O)c1` [Compound 413, 3-(3,5-dimethoxyphenyl)-7-[(3S)-3-methylpiperazin-1-yl]-2H-chromen-2-one], the melting point is 149 to 151 °C. Further, the EC (1.5-fold) in series [1] lay in the range of 1 to 3 µM. In the series with Smn protein, the “maximum fold (Fold) increase” value is “* (maximum fold increase of ≤1.2)”.
The molecule `Cc1nc2ccc(-c3cc4ccc(N5CCNCC5)cc4oc3=O)cc2o1` [Compound 695, 3-(2-methyl-1,3-benzoxazol-6-yl)-7-(piperazin-1-yl)-2H-chromen-2-one] had a melting point of 200 to 205 °C. Moreover, in series [1], the EC (1.5-fold) is less than 0.1 µM. Further, the “maximum fold (Fold) increase” value with Smn protein was “*** (fold increase between >1.35 and ≤1.5)”.
`Cc1cn2cc(-c3cc4ccc(O[C@@H]5CCNC5)cc4oc3=O)nc2s1.Cl.Cl` [Compound 325, 3-(2-methylimidazo[2,1-b][1,3]thiazol-6-yl)-7-[(3R)-pyrrolidin-3-yloxy]-2H-chromen-2-one hydrochloride (1:2)] showed a melting point of 230 to 235 °C. For the same molecule, the EC (1.5-fold) in series [1] was in the range of 0.3 to 1 µM. Moreover, the “maximum fold (Fold) increase” value in the series with Smn protein is “* (maximum fold increase of ≤1.2)”.
